Key:
[1] = test system: afterdischarge-like spike activity; assay: Chronic focal epilepsy assay (cobalt powder on frontal cortex, EEG); format: in vivo; conditions: intraperitoneal, rat
From the text: In a model of chronic focal epilepsy where cobalt powder is placed on rat frontal cortex, the animals develop, after several days, chronic expression of afterdischarge-like spike activity which can be recorded by EEG.

[2] = test system: 3-mercaptopropionic acid (3-MPA)-induced convulsions; assay: 3-MPA-induced convulsions, protection of mice; format: in vivo, male Swiss albino mice; conditions: 3-MPA 120 mg/kg s.c.; for Number of Mice Protected From 3-MPA-Induced Convulsions: total protected of two groups of 5 mice
Procedure: (§1) Treatment of a mammal afflicted by or susceptible to certain CNS disorders is accomplished by administration of a therapeutically-effective amount of a compound of Formula I. In particular, Compounds #1-19 of Tables I and II were evaluated by in vitro and in vivo animal model assays to determine the pharmacological properties of such compounds and their likely suitability for use as therapeutic drugs in humans. These biological assays, as described below, consisted of prevention of induced convulsions in mice, determination of acute toxicity in mice and animal behavior assays. Except as otherwise specified, the animals used in the in vivo tests were male Swiss albino mice weight 22 to 33 g [CD1, Charles River, France], housed in groups of 10 on a 12-hour dark-light cycle for at least one week before use and fasted overnight prior to testing.
Compounds of Formula I were evaluated as inhibitors of convulsions and death induced by different convulsant agents: 3-mercaptopropionic acid (3-MPA; 120 mg/kg subcutaneously), pentylenetetrazole (PTZ, 55 mg/kg intravenously) and supramaximal electroconvulsive shocks (ECS evoked by a current intensity of 48 mA, 50 Hz. 0.2 sec duration, 10 msec square pulse, corneal electrodes) [W. van Dorsser, D. Barris, A. Cordi and J. Roba, Arch. Int. Pharmacodyn., 266, 239-249 (1983)]. The compounds of the invention were administered orally at a dosage of either 100 mg/kg or 30 mg/kg in a volume of 10 ml/kg each to 5 mice at intervals of 30 minutes or 2 hours before convulsions were induced. The number of mice protected against tonic convulsions and the number of dead mice were noted. Results are given in Table III as a score which represents the total number of mice protected for two groups of 5 animals (3-MPA).
(§2) Based upon data generated from the previously-described anti-convulsant experiments, ED50 values were calculated at which Compound #18 inhibits convulsions induced by the convulsant agents listed in Table V.

mice = test system: mice; parameters: species or system male Swiss albino mice; conditions: mouse, in vivo, po
Procedure: as §1
(§3) The acute toxicity of compounds of the invention was determined after oral administration of the test compound to mice. Compound to be tested was suspended in a 1% tragacanth gum mucilage, and was administered by means of an intragastric probe to a group of three male mice, which doses varied from 3,000 mg/kg down to about 3 mg/kg. Doses used in the test were determined by observing toxic effects on the mice. The mortality was recorded over a period of 15 days. The LD50 results reported in Table V were calculated according to published methods [Lichtfield and Wilcoxon, J. Pharmacol. Exp. Ther., 96, 99 (1949)] and expressed in mg or test compound per kilogram of mouse body weight.
Behavioral effects of compounds of the invention on animals were determined by observations taken at 5 to 6 hours and at 24 hours after administration of compounds in the acute toxicity studies. Determinations were made based on a method derived from that of S. Irwin [See R. A. Turner, Screening Methods in Pharmacology, Chapter 3, pages 22-34, Academic Press, N.Y. (1965)]. If an anomaly were noted, the observation was extended and smaller doses were tested. Possible types of behavior to be observed are as follows: analgesia (AAG), convulsions (CON), depression (DEP), exophthalmia (EOP), excitation (EXC), hyperalgesia (HAG), hypothermia (ATH), hypotonia (ATN), piloerection (PIE), palpebral ptosis (PTO), reduction of the pinna reflex (RPI), reduction of the rearing reflex (RRE), reduction of the flexion reflex (RRF), sedation (SED), tremors (TRE), cyanosis (CYA), diarrhea (DIA), increase of the pinna reflex (HPI), increase of the flexion reflex (HRF), dyspnea (DYS). Behaviors observed are reported in Table IV by numbers which represent the dose at which the behavior is observed.

[3] = test system: hypomotility induced by the α2 agonist clonidine; assay: Clonidine-induced hypomotility; format: in vivo; conditions: 10 mg/kg; clonidine 150 mg/kg i.p.; eight mice, 90 min after clonidine
Procedure: as §1
Given alone, clonidine inhibits spontaneous locomotor and rearing activity. Eight test mice were treated with Compound #18 and subsequently with clonidine ([…], intraperitoneal). Then, 90 min. after clonidine administration the mice were placed in a rectangular open field of 47×53 cm, having a floor divided into 36 boxes of about 8×9 cm. The number of boxes through which the animal goes in 3 min. and the number of rearing episodes were noted.

[4] = test system: supramaximal electroconvulsive shocks (ECS)-induced convulsions; assay: Supramaximal electroconvulsive shock (ECS) induced convulsions; format: in vivo, male Swiss albino mice; conditions: Mus musculus; oral; ECS 48 mA, 50 Hz, 0.2 sec; read-out: Inhibition of Convulsions (ED50), ECS
Procedure: (§4) Treatment of a mammal afflicted by or susceptible to certain CNS disorders is accomplished by administration of a therapeutically-effective amount of a compound of Formula I. In particular, Compounds #1-19 of Tables I and II were evaluated by in vitro and in vivo animal model assays to determine the pharmacological properties of such compounds and their likely suitability for use as therapeutic drugs in humans. These biological assays, as described below, consisted of prevention of induced convulsions in mice, determination of acute toxicity in mice and animal behavior assays. […]
(§5) Compounds of Formula I were evaluated as inhibitors of convulsions and death induced by different convulsant agents: 3-mercaptopropionic acid (3-MPA; 120 mg/kg subcutaneously), pentylenetetrazole (PTZ, 55 mg/kg intravenously) and supramaximal electroconvulsive shocks (ECS evoked by a current intensity of 48 mA, 50 Hz. 0.2 sec duration, 10 msec square pulse, corneal electrodes) [W. van Dorsser, D. Barris, A. Cordi and J. Roba, Arch. […]
as §2

[5] = test system: pentylenetetrazole (PTZ)-induced convulsions; assay: Pentylenetetrazole (PTZ) induced convulsions; format: in vivo, male Swiss albino mice; conditions: Mus musculus; oral; PTZ 55 mg/kg i.v.; read-out: Inhibition of Convulsions (ED50), PZT
Procedure: as §4, §5, §2

5HTP-induced head twitch = assay: 5HTP-induced head twitch; format: in vivo, mice
Procedure: as §1
Compound #18 was evaluated for inhibition of head twitches produced in mice by administration of L-5-hydroxytryptophan (5HTP, 10 mg/kg intraperitoneously) after nialamide treatment (50 mg/kg intraperitoneal, 22 hours before the test). The head twitches were counted for 45 min. starting 15 min. after 5HTP administration. [E. Friedmann & al.; Europ. J. Pharmocol., 89, 69-76 (1983)].

[6] = Acute toxicity after oral administration; conditions: mouse, in vivo, mice, mortality over 15 days
Procedure: as §1, §3

Q: Which “time over which inhibition of spike activities was observed” value ([1]; threshold dose of 50 mg/kg) does the source give for `NC(=O)CNC(c1ccccc1)c1ccccc1` [Compound 18, 2-diphenylmethylaminoacetamide] here?
A: The value was 14 to 90 min.

Q: What about the minimal effective dose ([1]; ip, read-out: threshold dose for inhibiting spike activities) of the same compound?
A: The minimal effective dose was 50 mg/kg.

Q: And the ED50 ([2]; Mus musculus, oral, read-out: Inhibition of Convulsions (ED50), 3-MPA)?
A: Its ED50 is 9.3 mg/kg.

Q: And the “Number of Mice Protected From 3-MPA-Induced Convulsions” value (shortened to “Number”) ([2]; oral 30 mpk, interval 30 min)?
A: Its value is 9 mice.

Q: What about the “Number” value ([2]; oral 100 mpk, interval 30 min) of the same compound?
A: Its value is 10 mice.

Q: What about the “Number” value ([2]; oral 100 mpk, interval 2 hr) of the same compound?
A: Its value is 10 mice.

Q: What about the “Behavior: dose at which depression (DEP) is observed” value (mice) of the same compound?
A: Its value is 1000 mg/kg.

Q: What about the “Behavior: dose at which palpebral ptosis (PTO) is observed” value (mice) of the same compound?
A: The value was 1000 mg/kg.

Q: And the “effect on clonidine-induced hypomotility” value [3]?
A: The value was “seems unable to alter the hypomotility”.

Q: And the ED50 [4]?
A: Its ED50 is 26 mg/kg.

Q: And the ED50 [5]?
A: The ED50 was 66 mg/kg.

Q: What about the ED50 (5HTP-induced head twitch; Mus musculus, po, 2 hours before 5HTP (10 mg/kg i.p.), nialamide pretreated mice, read-out: ED50 for inhibition of 5HTP-induced head twitches) of the same compound?
A: The ED50 was 10 mg/kg.

Q: What about the “effect on 5HTP-induced head twitch” value (5HTP-induced head twitch; mice, nialamide treatment) of the same compound?
A: Its value is “inhibited 5HTP-induced head twitch”.

Q: What about the LD50 at 360 h [6] of the same compound?
A: Its LD50 at 360 h is 1020 mg/kg.

Q: For `CCCCCNCC(N)=O` [2-pentylaminoacetamide, reference compound], which “effect on 5HTP-induced head twitch (comparison compound)” value (5HTP-induced head twitch; under similar test conditions) is on record?
A: The value was “potentiates 5HTP-induced head twitch”.

Q: Which results are given for `Cc1cccc(C(NCC(N)=O)c2ccccc2)c1` (centres unmarked) [Compound 5, 2-[(3-methylphenyl)phenyl]methylaminoacetamide]?
A: Number of Mice Protected From 3-MPA-Induced Convulsions ([2]; oral 30 mpk, interval 30 min): 2 mice; Behavior: dose at which sedation (SED) is observed (mice): 1000 mg/kg; LD50 at 360 h [6]: 3500 mg/kg

Q: Which results are given for `NC(=O)CNC(c1ccccc1)c1ccc(Cl)cc1` (centres unmarked) [Compound 1, 2-[(4-chlorophenyl)phenyl]methylaminoacetamide]?
A: Number of Mice Protected From 3-MPA-Induced Convulsions ([2]; oral 100 mpk, interval 30 min): 9 mice; Behavior: dose at which convulsions (CON) are observed (mice): 1000 mg/kg; Behavior: dose at which hypotonia (ATN) is observed (mice): 1000 mg/kg; Behavior: dose at which sedation (SED) is observed (mice): 1000 mg/kg; LD50 at 360 h [6]: 2400 mg/kg

From patent publication US5278191A, “Diphenylmethylaminoacetamide derivatives as anti-convulsants” (G. D. Searle & Co., priority 1991, dated 1994)
